Key:
22Rv1 Cell = test: 22RV1 cell growth inhibition, CellTiter-Glo, 72 h; format: cell-based; conditions: Homo sapiens, 22Rv1, 72 h, 22RV1 cells, 72 h culture
Experimental: (§1) 22RV1 or vCap cells were cultured in RPMI-1640 medium (10% fetal bovine serum and 100 units (per mL) of penicillin/streptomycin dual antibody were added to RPMI-1640) in a 37° C., 5% CO2 cell incubator. Cells at the logarithmic growth phase were inoculated onto a 96-well cell culture plate at 5×10^3 cells/100 μL/well and cultured overnight. Solutions of different concentrations of an active compound in DMSO were added, with the final concentration being 0.5% DMSO. The positive control was 1% TweeN2O, and the negative control was 0.5% DMSO. After 72 h of culture, an equal volume of CellTiter-Glo was added to each well, and the mixtures were mixed homogeneously by shaking for 2 min. The plate was let stand at room temperature for 10 min, and fluorescence signal values were read using a microplate reader. Data were analyzed using Prism 7.0 and graphs were generated. The values are shown as mean f SEM (N=2). […] The X-axis represents compound concentration (μM), and the Y-axis represents % inhibition.

vCap Cell = test: vCap cell growth inhibition, CellTiter-Glo, 72 h; format: cell-based; conditions: Homo sapiens, VCaP, 72 h, vCap cells, 72 h culture
Experimental: as §1

Structure (SMILES) | IC50 (22Rv1 Cell) | IC50 (vCap Cell)
CN1Cc2c(cc(C3CCNCC3)cc2N2CCCc3cc(-c4cnn(C)c4)c(C(F)F)cc32)CC1=O [Compound M001027] | > 1000 nM | > 1000 nM
CN1CCC(c2cc3c(c(N4CCCc5cc(-c6cnn(C)c6)c(C(F)F)cc54)c2)CN(C)C(=O)C3)CC1 [Compound M001028, 8-[7-(difluoromethyl)-6-(1-methylpyrazol-4-yl)-3,4-dihydro-2H-quinolin-1-yl]-2-methyl-6-(1-methyl-4-piperidyl)-1,4-dihydroisoquinolin-3-one] | > 1000 nM | > 1000 nM
CC(=O)N1Cc2cc(C3CC4CCC(C3)N4C)cc(N3CCCc4cc(-c5cnn(C)c5)c(C(F)F)cc43)c2C1 (stereo not drawn) [Compound M001032] | > 1000 nM | > 1000 nM
CNC(=O)N1CCc2cc(C3CC4CCC(C3)N4C)cc(N3CCCc4cc(-c5cnn(C)c5)c(C(F)F)cc43)c2C1 (stereo not drawn) [Compound M001035] | > 1000 nM | > 1000 nM
CC(=O)N1Cc2cc(C3CCNCC3)cc(N3CCCc4cc(-c5cnn(C)c5)c(C(F)F)cc43)c2C1 [Compound M001040] | > 1000 nM | > 1000 nM
CNC(=O)N1Cc2cc(C3CCN(C)CC3)cc(N3CCCc4cc(-c5cnn(C)c5)c(C(F)F)cc43)c2C1 [Compound M001043] | > 1000 nM | > 1000 nM
CC(=O)N1Cc2cc(C3CCN(C)C3)cc(N3CCCc4cc(-c5cnn(C)c5)c(C(F)F)cc43)c2C1 (stereo not drawn) [Compound M001047] | > 1000 nM | > 1000 nM
CC(=O)N1Cc2cc(C3CCCNC3)cc(N3CCCc4cc(-c5cnn(C)c5)c(C(F)F)cc43)c2C1 (stereo not drawn) [Compound M001048] | > 1000 nM | > 1000 nM
CC(=O)N1Cc2cc(C3CC4CCC(C3)N4)cc(N3CCCc4cc(-c5cnn(C)c5)c(C(F)F)cc43)c2C1 (stereo not drawn) [Compound M001052] | > 1000 nM | > 1000 nM

Results, then the molecule that gave them:

IC50 (22Rv1 Cell) | IC50 (vCap Cell) | Structure (SMILES)
> 1000 nM | > 1000 nM | CN1CCN(c2cc3c(c(N4CCCc5cc(-c6cnn(C)c6)c(C(F)F)cc54)c2)CN(C)C(=O)C3)CC1 [Compound M001024]
> 1000 nM | > 1000 nM | CC(=O)N1Cc2cc(C3CCN(C[C@H](C)O)CC3)cc(N3CCCc4cc(-c5cnn(C)c5)c(C(F)F)cc43)c2C1 [Compound M001030]
> 1000 nM | > 1000 nM | CC(=O)N1Cc2cc(C3CCN(C)CC3)cc(N3CCCc4cc(-c5cnn(C)c5)c(C(F)F)cc43)c2C1 [Compound M001041]
> 1000 nM | > 1000 nM | CNC(=O)N1Cc2cc(C3CCNCC3)cc(N3CCCc4cc(-c5cnn(C)c5)c(C(F)F)cc43)c2C1 [Compound M001042]
> 1000 nM | > 1000 nM | CNC(=O)N1CCc2cc(N3CCNCC3)cc(N3CCCc4cc(-c5cnn(C)c5)c(C(F)F)cc43)c2C1 [Compound M001044]
> 1000 nM | > 1000 nM | CNC(=O)N1CCc2cc(N3CCN(C)CC3)cc(N3CCCc4cc(-c5cnn(C)c5)c(C(F)F)cc43)c2C1 [Compound M001045]
> 1000 nM | > 1000 nM | CC(=O)N1Cc2cc(C3CCNC3)cc(N3CCCc4cc(-c5cnn(C)c5)c(C(F)F)cc43)c2C1 (stereo not drawn) [Compound M001046]
> 1000 nM | > 1000 nM | CC(=O)N1Cc2cc(C3CCCN(C)C3)cc(N3CCCc4cc(-c5cnn(C)c5)c(C(F)F)cc43)c2C1 (stereo not drawn) [Compound M001049]
> 1000 nM | > 1000 nM | CNC(=O)N1CCc2cc(C3CCNC3)cc(N3CCCc4cc(-c5cnn(C)c5)c(C(F)F)cc43)c2C1 (stereo not drawn) [Compound M001050]
> 1000 nM | > 1000 nM | CNC(=O)N1CCc2cc(C3CCN(C)C3)cc(N3CCCc4cc(-c5cnn(C)c5)c(C(F)F)cc43)c2C1 (stereo not drawn) [Compound M001051]
> 1000 nM | < 1000 nM | CC(=O)N1Cc2cc(C3CCN(C(C)=O)C3)cc(N3CCCc4cc(-c5cnn(C)c5)c(C(F)F)cc43)c2C1 (stereo not drawn) [Compound M001053]
> 1000 nM | > 1000 nM | CNC(=O)N1CCc2cc(C3CCN(C(C)=O)C3)cc(N3CCCc4cc(-c5cnn(C)c5)c(C(F)F)cc43)c2C1 (stereo not drawn) [Compound M001054]

From patent US20240109868A1, “EP300/CBP MODULATOR, PREPARATION METHOD THEREFOR AND USE THEREOF” (Miracure Biotechnology Limited, priority 2022, published 2024)
